Data on three compounds can be found in ChEMBL document CHEMBL1201862, “PubChem BioAssay data set” (2004).

The source made the active and inactive calls.

One assay can be described thus: cells. The assay is classed as functional, cell-based.
In assay [1] the target is SWI/SNF-related matrix-associated actin-dependent regulator of chromatin subfamily A member 2 (Homo sapiens, UniProt P51531). In words: Luminescence-based cell-based high throughput dose response assay to identify activators of the function of SWI/SNF related, matrix associated, actin dependent regulator of chromatin, subfamily a, member 2 (SMARCA2, BRM). Format: functional.
SWI/SNF-related matrix-associated actin-dependent regulator of chromatin subfamily A member 2, sequence (P51531 whole entry): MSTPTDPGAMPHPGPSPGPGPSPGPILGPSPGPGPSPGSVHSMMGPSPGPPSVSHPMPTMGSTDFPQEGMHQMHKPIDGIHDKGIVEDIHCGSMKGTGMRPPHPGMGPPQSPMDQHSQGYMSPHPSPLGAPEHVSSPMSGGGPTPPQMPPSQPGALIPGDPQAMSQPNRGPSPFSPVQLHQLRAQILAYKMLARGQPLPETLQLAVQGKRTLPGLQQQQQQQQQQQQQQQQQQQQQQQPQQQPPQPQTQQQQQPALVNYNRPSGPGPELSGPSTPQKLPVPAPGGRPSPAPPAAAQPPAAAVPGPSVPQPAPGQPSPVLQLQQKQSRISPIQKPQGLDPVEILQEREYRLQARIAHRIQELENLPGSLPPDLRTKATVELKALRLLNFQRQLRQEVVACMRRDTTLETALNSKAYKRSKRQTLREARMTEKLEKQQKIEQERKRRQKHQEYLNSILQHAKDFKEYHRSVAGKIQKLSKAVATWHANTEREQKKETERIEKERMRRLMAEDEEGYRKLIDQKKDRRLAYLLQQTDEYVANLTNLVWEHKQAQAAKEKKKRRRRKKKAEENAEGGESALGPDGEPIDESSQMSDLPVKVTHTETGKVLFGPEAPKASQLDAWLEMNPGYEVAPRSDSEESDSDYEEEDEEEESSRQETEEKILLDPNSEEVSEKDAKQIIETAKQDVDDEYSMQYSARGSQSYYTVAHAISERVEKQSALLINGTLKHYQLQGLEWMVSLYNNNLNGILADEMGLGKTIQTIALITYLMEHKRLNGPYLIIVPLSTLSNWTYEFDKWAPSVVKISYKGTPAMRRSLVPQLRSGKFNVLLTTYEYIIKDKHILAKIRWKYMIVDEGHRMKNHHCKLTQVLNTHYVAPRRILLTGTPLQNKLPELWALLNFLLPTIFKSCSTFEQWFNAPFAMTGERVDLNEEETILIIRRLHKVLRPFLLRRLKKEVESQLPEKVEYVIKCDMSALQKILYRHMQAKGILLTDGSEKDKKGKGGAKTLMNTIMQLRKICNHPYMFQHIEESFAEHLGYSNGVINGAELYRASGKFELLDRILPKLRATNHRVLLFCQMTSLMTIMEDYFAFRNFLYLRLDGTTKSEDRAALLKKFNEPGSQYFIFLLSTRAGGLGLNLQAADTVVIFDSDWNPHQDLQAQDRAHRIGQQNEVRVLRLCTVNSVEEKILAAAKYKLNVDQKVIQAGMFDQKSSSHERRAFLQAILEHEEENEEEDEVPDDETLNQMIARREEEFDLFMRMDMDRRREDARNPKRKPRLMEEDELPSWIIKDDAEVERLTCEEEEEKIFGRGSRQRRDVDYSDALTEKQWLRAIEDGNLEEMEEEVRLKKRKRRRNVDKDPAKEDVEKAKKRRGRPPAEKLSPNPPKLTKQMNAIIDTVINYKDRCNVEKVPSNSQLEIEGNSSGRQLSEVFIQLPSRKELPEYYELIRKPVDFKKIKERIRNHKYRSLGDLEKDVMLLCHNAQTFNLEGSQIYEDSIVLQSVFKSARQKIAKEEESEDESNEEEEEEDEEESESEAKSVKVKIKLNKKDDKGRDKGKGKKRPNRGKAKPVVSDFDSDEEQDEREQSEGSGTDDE

A further assay relates to HeLa. Nature of the assay: HeLa cell cytotoxicity, dose response, cytotoxicity control, 24 h, cherry-picked samples (AID 504726).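 Note: potency for cytotoxicity as loss of luminescence signal.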 Format: functional, cell-based. To be noted: Homo sapiens.
For another assay, the target named is T1, Caspase-3 (Homo sapiens, UniProt P42574).
T1 sequence (P42574 whole entry): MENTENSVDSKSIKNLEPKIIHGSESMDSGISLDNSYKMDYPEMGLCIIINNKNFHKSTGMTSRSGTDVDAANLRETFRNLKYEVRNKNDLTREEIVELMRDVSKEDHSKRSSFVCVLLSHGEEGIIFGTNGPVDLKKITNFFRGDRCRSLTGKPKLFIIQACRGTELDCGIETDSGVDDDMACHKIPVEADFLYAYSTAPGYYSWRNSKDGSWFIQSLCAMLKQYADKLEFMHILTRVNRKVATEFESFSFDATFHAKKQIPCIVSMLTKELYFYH
Nature of the assay: procaspase-3 activators, dose response, biochemical, absorbance (AID 489014).

As to `CCCCC(=O)NC(c1ccc(Cl)cc1)c1ccc2cccnc2c1O` (centres undefined), the EC50 in “cells” was 59.9 µM (active). `COc1ccc2noc3c2c1C(=O)c1ccccc1-3`: the EC50 in assay [1] is > 91.2 µM (inactive). Besides, the AC50 in the assay with HeLa is 74.7 µM (active). Regarding `O=C(N/N=C/c1ccccc1O)/C(O)=C\C1=NC2(CCCC2)Cc2ccccc21`, at Caspase-3, the EC50 was > 85.3 µM (inactive).

For orientation: EC50 means the concentration needed to bring the measured effect to its halfway point. A word on the AC50: it is the concentration at which the activity in the assay is half-maximal.
